ChEMBL document CHEMBL5370524, “Design and synthesis of a novel class of PDE4 inhibitors with antioxidant properties as bifunctional agents for the potential treatment of COPD” (Eur J Med Chem, 2023)
Values belong to the molecule of their own block, whether it stands above or below them. The source made the active and inactive calls. The rule behind the calls is not given here.

How the values were obtained:
[1] = Antioxidant activity assessed as DPPH radical scavenging activity at 10 uM by spectrophotometric analysis relative to control; assay type: functional
[2] = Metabolic stability in human liver microsome assessed as intrinsic clearance measured upto 45 mins in presence of NADPH by LC-MS/MS analysis; assay type: ADME; settings: liver microsomes, read-out: CLH
[3] = Metabolic stability in human liver microsome assessed as half life measured upto 45 mins in presence of NADPH by LC-MS/MS analysis; assay type: ADME; settings: liver microsomes
Mus musculus [4] = species: Mus musculus; experiment: Antioxidant activity in Fe2+-induced mouse assessed as inhibition of MDA production in lung homogenate at 250 to 1000 uM incubated for 60 mins; assay type: functional; settings: dose 250-1000 µM
[5] = Antioxidant activity assessed as DPPH radical scavenging activity by spectrophotometric analysis; assay type: functional
Phosphodiesterase 4 = Phosphodiesterase 4 (Homo sapiens, UniProt P27815+Q08499+Q07343+Q08493); experiment: Inhibition of PDE4 (unknown origin) using fluorescein-cAMP as substrate incubated for 45 mins by fluorescence polarization assay; assay type: protein assay
RAW264.7 [6] = experiment: Antiinflammatory activity in LPS-induced mouse RAW264.7 cells assessed as inhibition of TNF-alpha production at 2.5 to 10 uM pretreated with compound for 1 hr followed by LPS-stimulation and measured after 12 hrs by ELISA analysis; assay type: functional, cell-based; settings: dose 2.5-10 µM, time 13.0 hrs
RAW264.7 [7] = experiment: Cytotoxicity against LPS-induced mouse RAW264.7 cells assessed as reduction in cell viability at 2.5 to 10 uM measured after 12 hrs by CCK-8 assay; assay type: toxicity, cell-based; settings: raw264.7, 12 h, dose 2.5-10 µM
Mus musculus [8] = experiment: Antiinflammatory activity in LPS-induced ICR mouse model assessed as reduction in TNF-alpha production in serum at 100 mg/kg, ip pretreated with compound for 1 hr followed by LPS-induction and measured after 60 mins ny ELISA analysis; assay type: functional; parameters: scale not given: the % may be the effect or the level left; settings: time 2 hrs
[9] = Metal chelating activity assessed as Fe2+-complex formation capacity at 0.1 to 1 mM by spectrophotometry analysis; settings: dose 0.1-1 mM
Mus musculus [10] = experiment: Antiinflammatory activity in LPS-induced ICR mouse model assessed as reduction in TNF-alpha production in serum at 50 mg/kg, ip pretreated with compound for 1 hr followed by LPS-induction and measured after 60 mins ny ELISA analysis; assay type: functional; parameters: scale not given: the % may be the effect or the level left; settings: time 2 hrs
[11] = Metal chelating activity assessed as Fe3+-reducing capacity at 0.006 to 0.2 mM incubated for 30 mins by spectrophotometry analysis; settings: dose 0.006-0.2 mM
Mus musculus [12] = experiment: Antiinflammatory activity in LPS-induced ICR mouse model assessed as reduction in TNF-alpha production in serum at 10 mg/kg, ip pretreated with compound for 1 hr followed by LPS-induction and measured after 60 mins ny ELISA analysis; assay type: functional; parameters: scale not given: the % may be the effect or the level left; settings: time 2 hrs

Compound: CC1=NN(c2ccccc2)C(=O)C1
Activity [1]: 23.6%

Compound: COc1ccc(/C=C2\COc3cc(O)ccc3C2=O)cc1O
Activity [1]: inactive

CLint scaled [2]: 56 mL/min/kg
half-life [3]: 31.1 min
Compound: O=C(c1ccc(F)cc1)C1CCN(CCn2c(=O)[nH]c3ccccc3c2=O)CC1 [KETANSERIN]

IC50 [5]: 5.95 µM
IC50 (Phosphodiesterase 4): 1.82 µM
Compound: COc1ccc(/C=C/C(=O)c2ccc(O)c(O)c2)cc1OC1CCCC1
Activity (Mus musculus [4]): Active
Activity (RAW264.7 [6]): Active
Activity (RAW264.7 [7]): Non-Toxic

Compound: O=C1/C(=C/c2ccc(O)c(O)c2)Oc2cc(O)ccc21
Activity [1]: 30.2%

Compound: COc1ccc2c(c1)OC/C(=C\c1ccc(O)c(O)c1)C2=O
Activity [1]: 49.6%

Compound: COc1ccc2c(c1)OC/C(=C\c1ccc(O)c(OC)c1)C2=O
Activity [1]: inactive

Compound: COc1ccc(/C=C2\Oc3cc(O)ccc3C2=O)cc1OCC1CC1
Activity [1]: inactive

Compound: COc1ccc(/C=C/C(=O)c2ccc(O)cc2)cc1OC
Activity [1]: inactive

Activity [9]: Active
Activity [11]: Active
CLint scaled [2]: 36.2 mL/min/kg
IC50 [5]: 6.97 µM
IC50 (Phosphodiesterase 4): 1.56 µM
half-life [3]: 48 min
Compound: COc1ccc(/C=C/C(=O)c2ccc(O)c(O)c2)cc1OCC1CC1
Activity (Mus musculus [4]): Active
Activity (Mus musculus [8]): 54.7%
Activity (Mus musculus [10]): 20.2%
Activity (RAW264.7 [6]): Active
Activity (RAW264.7 [7]): Non-Toxic

Compound: COc1ccc(/C=C2\COc3cc(O)ccc3C2=O)cc1OC
Activity [1]: inactive

Compound: O=C1/C(=C/c2ccc(O)c(O)c2)COc2cc(O)ccc21
Activity [1]: 48.3%

IC50 [5]: 10.9 µM
IC50 (Phosphodiesterase 4): 2.78 µM
Compound: COc1ccc(/C=C/C(=O)c2ccc(O)c(O)c2)cc1OC
Activity (Mus musculus [4]): Active
Activity (RAW264.7 [6]): Active
Activity (RAW264.7 [7]): Non-Toxic

Compound: COc1ccc(/C=C/C(=O)c2ccc(O)cc2)cc1OCC1CC1
Activity [1]: inactive

Compound: O=C(/C=C/c1ccc(O)c(O)c1)c1ccc(O)cc1
Activity [1]: 60.4%

Compound: COc1cc(/C=C2\COc3cc(O)ccc3C2=O)ccc1O
Activity [1]: inactive

Compound: COc1ccc(/C=C2\Oc3cc(O)ccc3C2=O)cc1OC
Activity [1]: inactive

Compound: COc1ccc(C2CNC(=O)C2)cc1OC1CCCC1 (stereo not drawn) [ROLIPRAM]
Activity (Mus musculus [12]): 55.1%

IC50 [5]: 6.2 µM
IC50 (Phosphodiesterase 4): 1.45 µM
Compound: CCOc1cc(/C=C/C(=O)c2ccc(O)c(O)c2)ccc1OC
Activity (Mus musculus [4]): Active
Activity (RAW264.7 [6]): Active
Activity (RAW264.7 [7]): Non-Toxic

Compound: COc1ccc(/C=C2\COc3cc(O)ccc3C2=O)cc1OCC1CC1
Activity [1]: inactive

IC50 [5]: 6.36 µM
IC50 (Phosphodiesterase 4): 1.53 µM
Compound: COc1ccc(/C=C/C(=O)c2ccc(O)c(O)c2)cc1OC(C)C
Activity (Mus musculus [4]): Active
Activity (RAW264.7 [6]): Active
Activity (RAW264.7 [7]): Non-Toxic
